Assay results taken from patent US20210330611A1, “THERAPY FOR NEUROLOGICAL DISEASES/DISORDERS” (priority 2020, published 2021).
Where a name gives a salt, the structure may show the parent alone. Read-outs that look alike come from different tables or passages of the source.

What was measured:
primary rat microglia [1] = test system: primary rat microglia;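 for Fibrin % cell toxicity: share of dead cells sized under 150 µm2 at 10 µM in fibrin-stimulated microglia HTS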
primary rat microglia [2] = test system: primary rat microglia; remark: listed apart in the source;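 for Fibrin % cell toxicity: share of dead cells sized under 150 µm2 at 10 µM in fibrin-stimulated microglia HTS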
[3] = test system: fibrin- and LPS-induced microglia activation; assay: cells; format: cell-based, rat
[4] = test system: LPS-induced microglia activation; assay: Image-based assay of LPS-induced microglia activation (HTS and dose response); format: cell-based, rat; details: for inhibition at 10 µM: Rattus norvegicus, Microglia, read-out: LPS % inhibition
[5] = test system: fibrin-induced microglia activation; assay: Image-based assay of fibrin-induced microglia activation (HTS and dose response); format: cell-based, rat; details: for inhibition at 10 µM: Rattus norvegicus, Microglia, read-out: Fibrin % inhibition
[6] = primary HTS, 10 μM, LPS-stimulated primary microglia
[7] = primary HTS, 10 μM, fibrin-stimulated primary microglia
[8] = classification by fibrin and LPS inhibition, HTS at 10 μM
[9] = primary microglia HTS, LPS stimulation, compounds at 10 μM
[10] = primary microglia HTS, fibrin stimulation, compounds at 10 μM

| SMILES | LPS % cell toxicity (primary rat microglia [1]; rat) | Fibrin % cell toxicity (primary rat microglia [2]; rat) | Quadrant (FIG. 5b) [3] | inhibition at 10 µM [4] | inhibition at 10 µM [5] | other results |
| --- | --- | --- | --- | --- | --- | --- |
| COc1cc(N)c(Cl)cc1C(=O)NC1CCN(CCCOc2ccc(F)cc2)CC1OC (centres unmarked) [Cisapride] | 0% | 0% |  |  |  | Quadrant (FIG. 5b) ([3]; primary HTS, 10 μM): Q4; inhibition at 10 µM [4, 6]: 5%; inhibition at 10 µM [5, 7]: -38% |
| C[N+](C)(C)CCOP(=O)(O)OP(=O)([O-])OC[C@H]1O[C@@H](n2ccc(N)nc2=O)[C@H](O)[C@@H]1O [Citicoline] | 0% | 1% |  |  |  | Quadrant (FIG. 5b) ([3]; primary HTS, 10 μM): Q4; inhibition at 10 µM [4, 6]: 16%; inhibition at 10 µM [5, 7]: 5% |
| O=C(O)CC(O)(CC(=O)O)C(=O)O [Citric Acid] | 0% | 1% | Q4 | -6% | -36% |  |
| Nc1nc(Cl)nc2c1ncn2[C@H]1C[C@H](O)[C@@H](CO)O1 [Cladribine] | 0% | 1% |  |  |  | Quadrant (FIG. 5b) ([3]; primary HTS, 10 μM): Q4; inhibition at 10 µM [4, 6]: 6%; inhibition at 10 µM [5, 7]: -23% |
| CC[C@H]1OC(=O)[C@H](C)[C@@H](O[C@H]2C[C@@](C)(OC)[C@@H](O)[C@H](C)O2)[C@H](C)[C@@H](O[C@@H]2O[C@H](C)C[C@H](N(C)C)[C@H]2O)[C@](C)(OC)C[C@@H](C)C(=O)[C@H](C)[C@@H](O)[C@]1(C)O [Clarithromycin] | 0% | 1% |  |  |  | Quadrant (FIG. 5b) ([3]; primary HTS, 10 μM): Q4; inhibition at 10 µM [4, 6]: 18%; inhibition at 10 µM [5, 7]: -7% |
| Clc1ccc(Cn2c(CN3CCCC3)nc3ccccc32)cc1 [Clemizole Hydrochloride] | 1% | 0% |  |  |  | Quadrant (FIG. 5b) ([3]; primary HTS, 10 μM): Q4; inhibition at 10 µM [4, 6]: 21%; inhibition at 10 µM [5, 7]: -38% |
| CC(C)(C)NCC(O)c1cc(Cl)c(N)c(Cl)c1 (centres unmarked) [Clenbuterol] | 0% | 1% |  |  |  | Quadrant (FIG. 5b) ([3]; primary HTS, 10 μM): Q4; inhibition at 10 µM [4, 6]: 25%; inhibition at 10 µM [5, 7]: 11% |
| CCN(CC)CCOc1ccc(C(=C(Cl)c2ccccc2)c2ccccc2)cc1 [Clomiphene] | 0% | 1% | Q4 | 7% | 11% |  |
| CN(C)CCCN1c2ccccc2CCc2ccc(Cl)cc21 [Clomipramine] | 1% | 1% | Q4 | 32% | -1% |  |
| Clc1cccc(Cl)c1N=C1NCCN1 [Clonidine] | 0% | 1% | Q4 | 14% | -22% |  |
| COC(=O)[C@H](c1ccccc1Cl)N1CCc2sccc2C1 [Clopidogrel] | 0% | 1% | Q4 | 7% | -24% |  |
| Nc1cc(C(Cl)=C(Cl)Cl)c(S(N)(=O)=O)cc1S(N)(=O)=O [Clorsulon] | 0% | 0% | Q4 | 17% | 0% |  |
| Clc1ccccc1C(c1ccccc1)(c1ccccc1)n1ccnc1 [Clotrimazole] | 0% | 1% | Q4 | 13% | -13% |  |
| CN1CCN(C2=Nc3cc(Cl)ccc3Nc3ccccc32)CC1 [Clozapine] | 0% | 0% | Q4 | 9% | 3% |  |
| COc1cc2c(c(OC)c1OC)-c1ccc(OC)c(=O)cc1[C@@H](NC(C)=O)CC2 [Colchicine, reference compound] | 10% | 12% | Q2 |  | 114% | Activity [3]: fib/LPS; inhibition at 10 µM ([4]; 48 h): 113% |
| CC=CC(=O)N(CC)c1ccccc1C [Crotamiton] |  |  |  |  |  | LPS % cell toxicity (primary rat microglia [1]): 0%; Fibrin % cell toxicity (primary rat microglia [2]): 0%; Quadrant (FIG. 5b) [3, 8]: Q4; LPS % inhibition [4, 9]: 3%; Fibrin % inhibition [5, 10]: 12% |
| O=S(=O)(O)NC1CCCCC1 [Cyclamic Acid] | 0% | 0% | Q4 | 13% | 4% |  |
| CN(C)CCC=C1c2ccccc2C=Cc2ccccc21 [Cyclobenzaprine] | 1% | 0% | Q4 | 35% | -29% |  |
| CN1CCC(=C2c3ccccc3C=Cc3ccccc32)CC1 [Cyproheptadine] | 1% | 1% | Q4 | 43% | 24% |  |
| NCCS [Cysteamine] | 0% | 0% | Q4 | 12% | 9% |  |
| Nc1ccn([C@@H]2O[C@H](CO)[C@@H](O)[C@@H]2O)c(=O)n1 [Cytarabine] | 0% | 0% |  |  |  | Quadrant (FIG. 5b) [3, 8]: Q4; inhibition at 10 µM [4, 9]: 14%; inhibition at 10 µM [5, 10]: -19% |
| O=c1cccc2n1C[C@@H]1CNC[C@H]2C1 [Cytisine] | 1% | 1% | Q4 | 16% | 23% |  |
| CC12CCC(CC1=O)C2(C)C [D-camphor] |  |  |  |  |  | LPS % cell toxicity (primary rat microglia [1]): 0%; Fibrin % cell toxicity (primary rat microglia [2]): 0%; Quadrant (FIG. 5b) [3, 8]: Q4; LPS % inhibition [4, 9]: 6%; Fibrin % inhibition [5, 10]: −32% |
| O.OC[C@@H](O)[C@@H](O[C@@H]1O[C@H](CO)[C@H](O)[C@H](O)[C@H]1O)[C@H](O)[C@@H](O)CO [D-lactitol Monohydrate] |  |  |  |  |  | LPS % cell toxicity (primary rat microglia [1]): 0%; Fibrin % cell toxicity (primary rat microglia [2]): 1%; Quadrant (FIG. 5b) [3, 8]: Q4; LPS % inhibition [4, 9]: 16%; Fibrin % inhibition [5, 10]: 11% |
| CN(C)/N=N/c1[nH]cnc1C(N)=O [Dacarbazine] | 0% | 0% |  |  |  | Quadrant (FIG. 5b) [3, 8]: Q4; inhibition at 10 µM [4, 9]: 17%; inhibition at 10 µM [5, 10]: -13% |
| O=C1CN(/N=C/c2ccc(-c3ccc([N+](=O)[O-])cc3)o2)C(O)=N1 [Dantrolene] | 0% | 1% |  |  |  | Quadrant (FIG. 5b) [3, 8]: Q4; inhibition at 10 µM [4, 9]: 14%; inhibition at 10 µM [5, 10]: -6% |
| Nc1ccc(S(=O)(=O)c2ccc(N)cc2)cc1 [Dapsone] | 0% | 1% |  |  |  | Quadrant (FIG. 5b) [3, 8]: Q4; inhibition at 10 µM [4, 9]: 11%; inhibition at 10 µM [5, 10]: -23% |
| COc1cccc2c1C(=O)c1c(O)c3c(c(O)c1C2=O)C[C@@](O)(C(C)=O)C[C@@H]3O[C@H]1C[C@H](N)[C@H](O)[C@H](C)O1 [Daunorubicin] | 57% | 77% |  |  |  | Quadrant (FIG. 5b) ([3]; quadrant by fibrin and LPS inhibition in HTS of 1907 compounds): Q2; inhibition at 10 µM ([4]; 48 h, primary microglia HTS, LPS stimulation, increased cell size (>800 μm^2) as marker of activation): 114%; inhibition at 10 µM ([5]; primary microglia HTS, fibrin stimulation, increased cell size (>800 μm^2) as marker of activation): 116% |
| Cc1c(O)c(=O)ccn1C [Deferiprone] | 0% | 1% |  |  |  | Quadrant (FIG. 5b) [3, 8]: Q4; inhibition at 10 µM [4, 9]: 18%; inhibition at 10 µM [5, 10]: 31% |
